Laboratory results from patent publication US6921848B2, “Genes involved in brassinosteroid hormone action in plants” (The Salk Institute for Biological Studies, priority 2001, dated 2005).

Key:
Arabidopsis plants [1] = assay: Brassinazole application to Arabidopsis plants (mutant screen); type: in vivo, Arabidopsis thaliana; conditions: EMS mutagenized Arabidopsis plants, most plants
Description: EMS mutagenized Arabidopsis seeds were grown into plants that were then subjected to a suppressor screen for mutants insensitive to the brassinosteroid pathway inhibitor brassinazole. […] The mutant protein is herein referred to as bzr1-D (SEQ ID NO. 7).
(§1) The mutagenized plants were put through a screening procedure based on the use of brassinazole, a triazole-type brassinosteroid biosynthesis inhibitor (Asami, et al., Plant Physiol. 123: 93, 2000).

bzr1-D mutant = assay: Brassinazole sensitivity of the bzr1-D mutant; type: in vivo, Arabidopsis thaliana
Description: as §1
The dark-grown bzr1-D mutant is insensitive to brassinazole inhibition of hypocotyl elongation. The bzr1-D mutant has a curly hypocotyl similar to that of a seedling grown on medium containing brassinosteroids.

Arabidopsis plants [2] = conditions: normal Arabidopsis plants; cited from earlier work

CC(O)(c1ccccc1)C(Cc1ccc(Cl)cc1)n1cncn1 (stereo not shown) [brassinazole]
Phenotype of plants treated with brassinazole (Arabidopsis plants [1]): stunted
Bassinazole sensitivity (bzr1-D mutant; dark-grown): insensitive
Bassinazole sensitivity (bzr1-D mutant; light-grown): partially sensitive
Effects of brassinazole application (Arabidopsis plants [2]): dwarfism, altered leaf morphology, darker greening of leaves, and decreased hypocotyl length
